Results published in patent US11420959B2, “DACOS type NNRTIS amino acid ester derivative, preparation method thereof, pharmaceutical composition, and application thereof” (YUNNAN UNIVERSITY, priority 2018, dated 2022).
Read-outs that look alike come from different tables or passages of the source.

Assays:
[1] = test system: HIV-1IIIB; test: Syncytium inhibition experiment, C8166 cells infected with HIV-1IIIB; type: cell-based; settings: Human immunodeficiency virus 1, 72 h, syncytium count, three days
Procedure: The specific method was described below.
Syncytium inhibition experiment: 100 μL of C8166 cell suspension (4×10^5/mL) was inoculated into each well of a 96-well cell culture plate containing 5-fold serial dilutions of the compounds, followed by addition of HIV-1IIIB diluted supernatant (MOI=0.04). Three replicate wells were set for each serial concentration. […] The cells were incubated at 37° C. in a 5% CO2 incubator for three days. The number of the syncytia was counted in five non-overlapping fields of view by using an inverted microscope (100×). […] Calculation formula: cytopathic inhibition rate (%)=(1−number of syncytia in experimental wells/number of syncytia in control well)×100%.

[2] = Cytotoxicity experiment (MTT method) on C8166 cells; type: cell-based; settings: human
Procedure: Cytotoxicity experiment: The toxicity of the compounds on C8166 cells was determined by MTT method. In a 96-well cell culture plate, the compounds were subjected to 5-fold serial dilution and 100 μL of C8166 cell suspension (4×10^5/mL) was added into each well. Three replicate wells were set for each concentration. At the same time, a cell control group without drugs and drug control groups with Zidovudine (AZT) or Nevirapine (NVP) were set. The cells were incubated at 37° C. in a 5% CO2 incubator for three days, followed by the addition of MTT solution into each well, and then the cells were incubated at 37° C. for 4 hours. 15% SDS-50% DMF was added to each well and the cells were incubated at 37° C. in a 5% CO2 incubator overnight. After mixing evenly, the OD values were measured by BIO-TEK ELx800 ELISA instrument (determination wavelength: 570 nm; reference wavelength: 630 nm).

[3] = due to strong hydrophobicity; cited from earlier work

Structure (SMILES)	EC50 [1]	CC50 at 3 days [2]	bioavailability [3]	CC50 at 3 days ([2]; C8166 cells, MTT, three days, read-out: CC50)
CCc1c(CC2CCCCC2)nc(SCC(=O)c2ccc(OC(=O)C(N)CCCCN)cc2)[nH]c1=O (stereo not shown) [Compound I-9]	0.006 µM	101 µM	–	–
CCc1c(CC2CCCCC2)nc(SCC(=O)c2ccccc2)[nH]c1=O [DB02]	–	–	low	–
Cc1c(CC2CCCCC2)nc(SCC(=O)c2ccc(OC(=O)C(N)Cc3ccccc3)cc2)[nH]c1=O (stereo not shown) [Compound I-22]	0.01 µM	98.6 µM	–	–
CC(C)c1c(CC2CCCCC2)nc(SCC(=O)c2ccc(OC(=O)C3CCCN3)cc2)[nH]c1=O (stereo not shown) [Compound I-15]	0.012 µM	98.3 µM	–	–
CCc1c(CC2CCCCC2)nc(SCC(=O)c2ccc(OC(=O)C(N)Cc3cnc[nH]3)cc2)[nH]c1=O (stereo not shown) [Compound I-10]	0.012 µM	199 µM	–	–
Cc1c(CC2CCCCC2)nc(SCC(=O)c2ccc(OC(=O)CN)cc2)[nH]c1=O [Compound I-23]	0.008 µM	> 200 µM	–	–
Cc1ccnc2c1NC(=O)c1cccnc1N2C1CC1 [NVP, Nevirapine, reference compound]	0.013 µM	–	–	504 µM
Cc1cn([C@H]2C[C@H](N=[N+]=[N-])[C@@H](CO)O2)c(=O)[nH]c1=O [AZT, Zidovudine, reference compound]	–	> 749 µM	–	–
CCc1c(CC2CCCCC2)nc(SCC(=O)c2ccc(OC(=O)C3CCCN3)cc2)[nH]c1=O (stereo not shown) [Compound I-4]	0.012 µM	95.4 µM	–	–
CSCCC(N)C(=O)Oc1ccc(C(=O)CSc2nc(CC3CCCCC3)c(C)c(=O)[nH]2)cc1 (stereo not shown) [Compound I-24]	0.012 µM	199 µM	–	–
CCc1c(CC2CCCCC2)nc(SCC(=O)c2ccc(OC(=O)C(N)Cc3ccccc3)cc2)[nH]c1=O (stereo not shown) [Compound I-7]	0.009 µM	90.1 µM	–	–

Now from value to compound, other results behind:

EC50 [1]	Structure (SMILES)	CC50 at 3 days [2]	bioavailability [3]	CC50 at 3 days ([2]; C8166 cells, MTT, three days, read-out: CC50)
0.005 µM	CCc1c(CC2CCCCC2)nc(SCC(=O)c2ccc(OC(=O)C(N)CCC(N)=O)cc2)[nH]c1=O (stereo not shown) [Compound I-11]	118 µM	–	–
0.004 µM	CCc1c(CC2CCCCC2)nc(SCC(=O)c2ccc(OC(=O)C(N)CC(N)=O)cc2)[nH]c1=O (stereo not shown) [Compound I-12]	120 µM	–	–
0.003 µM	CSCCC(N)C(=O)Oc1ccc(C(=O)CSc2nc(CC3CCCCC3)c(C(C)C)c(=O)[nH]2)cc1 (stereo not shown) [Compound I-20]	153 µM	–	–
0.003 µM	CC(C)c1c(CC2CCCCC2)nc(SCC(=O)c2ccc(OC(=O)CN)cc2)[nH]c1=O [Compound I-17]	191 µM	–	–
0.003 µM	CCc1c(CC2CCCCC2)nc(SCC(=O)c2ccc(OC(=O)C(N)CC(C)C)cc2)[nH]c1=O (stereo not shown) [Compound I-2]	112 µM	–	–
0.004 µM	CCc1c(CC2CCCCC2)nc(SCC(=O)c2ccc(OC(=O)[C@@H](C)N)cc2)[nH]c1=O [Compound I-6]	96 µM	–	–
0.004 µM	CC(C)CC(N)C(=O)Oc1ccc(C(=O)CSc2nc(CC3CCCCC3)c(C(C)C)c(=O)[nH]2)cc1 (stereo not shown) [Compound I-18]	97.4 µM	–	–
0.003 µM	CCc1c(CC2CCCCC2)nc(SCC(=O)c2ccc(OC(=O)C(N)C(C)C)cc2)[nH]c1=O (stereo not shown) [Compound I-13]	94.8 µM	–	–
0.005 µM	CCc1c(CC2CCCCC2)nc(SCC(=O)c2ccc(OC(=O)[C@H](N)[C@H](C)CC)cc2)[nH]c1=O [Compound I-3]	134 µM	–	–
0.004 µM	CCc1c(CC2CCCCC2)nc(SCC(=O)c2ccc(OC(=O)C(N)CCSC)cc2)[nH]c1=O (stereo not shown) [Compound I-8]	116 µM	–	–
0.004 µM	CC(C)c1c(CC2CCCCC2)nc(SCC(=O)c2ccc(OC(=O)C(N)Cc3ccccc3)cc2)[nH]c1=O (stereo not shown) [Compound I-21]	95 µM	–	–
0.004 µM	CCc1c(CC2CCCCC2)nc(SCC(=O)c2ccc(OC(=O)C(N)Cc3c[nH]c4ccccc34)cc2)[nH]c1=O (stereo not shown) [Compound I-5]	95.2 µM	–	–
0.004 µM	CC[C@@H](C)[C@@H](N)C(=O)Oc1ccc(C(=O)CSc2nc(CC3CCCCC3)c(C(C)C)c(=O)[nH]2)cc1 [Compound I-14]	186 µM	–	–
0.004 µM	CC(C)c1c(CC2CCCCC2)nc(SCC(=O)c2ccc(OC(=O)C(N)Cc3c[nH]c4ccccc34)cc2)[nH]c1=O (stereo not shown) [Compound I-16]	118 µM	–	–
0.004 µM	CCc1c(CC2CCCCC2)nc(SCC(=O)c2ccc(OC(=O)CN)cc2)[nH]c1=O [Compound I-1]	138 µM	–	–
0.003 µM	CC(C)c1c(CC2CCCCC2)nc(SCC(=O)c2ccc(OC(=O)C(N)C(C)C)cc2)[nH]c1=O (stereo not shown) [Compound I-19]	126 µM	–	–
